PMC4891047, “A 20(S)-protopanoxadiol derivative overcomes multi-drug resistance by antagonizing ATP-binding cassette subfamily B member 1 transporter function” (Oncotarget, 2016)
Where two headings read alike, the source gives them in different places.

Tests used:
ABCB1 [1] = target: T1, ABCB1 (Homo sapiens, UniProt P08183); assay: biochemical
T1 construct: membrane vesicles (Pgp-Glo assay system)

ABCB1 [2] = target: T1, ABCB1; assay: biochemical; remark: listed apart in the source

T1 sequence (P08183 whole entry): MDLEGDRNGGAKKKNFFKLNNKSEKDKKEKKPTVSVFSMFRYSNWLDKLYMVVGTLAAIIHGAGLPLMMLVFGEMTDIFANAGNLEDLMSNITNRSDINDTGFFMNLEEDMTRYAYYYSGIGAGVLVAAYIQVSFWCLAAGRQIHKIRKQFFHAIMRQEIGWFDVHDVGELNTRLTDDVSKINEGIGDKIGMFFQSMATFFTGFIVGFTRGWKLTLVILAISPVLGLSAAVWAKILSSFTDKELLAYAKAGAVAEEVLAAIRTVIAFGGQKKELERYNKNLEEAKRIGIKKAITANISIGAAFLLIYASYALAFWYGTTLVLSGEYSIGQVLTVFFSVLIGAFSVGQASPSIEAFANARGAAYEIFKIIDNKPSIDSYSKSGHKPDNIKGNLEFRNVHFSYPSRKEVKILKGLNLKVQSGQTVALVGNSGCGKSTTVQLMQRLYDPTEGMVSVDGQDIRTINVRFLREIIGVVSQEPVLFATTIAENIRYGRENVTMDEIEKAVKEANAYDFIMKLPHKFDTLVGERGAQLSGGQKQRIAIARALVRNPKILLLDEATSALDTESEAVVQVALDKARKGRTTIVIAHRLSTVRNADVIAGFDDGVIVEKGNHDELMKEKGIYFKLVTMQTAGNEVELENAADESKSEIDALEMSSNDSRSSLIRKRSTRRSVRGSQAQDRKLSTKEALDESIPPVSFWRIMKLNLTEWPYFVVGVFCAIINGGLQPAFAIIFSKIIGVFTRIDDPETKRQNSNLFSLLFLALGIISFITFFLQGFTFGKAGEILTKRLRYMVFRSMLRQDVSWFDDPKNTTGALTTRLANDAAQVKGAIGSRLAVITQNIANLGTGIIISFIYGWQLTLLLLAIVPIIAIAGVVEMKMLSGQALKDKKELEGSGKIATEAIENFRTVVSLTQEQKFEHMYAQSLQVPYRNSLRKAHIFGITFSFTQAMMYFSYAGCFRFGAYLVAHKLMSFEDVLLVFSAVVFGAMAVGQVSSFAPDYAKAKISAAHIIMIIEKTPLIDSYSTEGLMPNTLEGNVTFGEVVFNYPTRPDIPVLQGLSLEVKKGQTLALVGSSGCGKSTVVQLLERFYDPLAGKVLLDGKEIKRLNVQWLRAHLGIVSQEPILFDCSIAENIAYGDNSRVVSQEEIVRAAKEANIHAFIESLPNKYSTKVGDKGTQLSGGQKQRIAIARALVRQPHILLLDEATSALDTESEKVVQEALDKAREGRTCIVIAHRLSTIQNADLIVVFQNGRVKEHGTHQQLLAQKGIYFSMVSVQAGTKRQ

## CC(C)=CCC[C@](C)(O)[C@H]1CC[C@]2(C)[C@@H]1[C@H](O)C[C@@H]1[C@@]3(C)CC[C@H](O)C(C)(C)[C@@H]3CC[C@]12C [PPD, 20(S)-protopanoxadiol]
ABCB1 [1]
  EC50: 3.13 µM

## COc1ccc(CNCCC[C@](C)(O)[C@H]2CC[C@]3(C)[C@@H]2[C@H](O)C[C@@H]2[C@@]4(C)CC[C@H](O)C(C)(C)[C@@H]4CC[C@]23C)cc1 [PPD11]
ABCB1 [1]
  EC50: 2.38 µM

## CC1(C)[C@@H](O)CC[C@]2(C)[C@H]3C[C@@H](O)[C@@H]4[C@@H]([C@@](C)(O)CCCNCc5ccccc5)CC[C@@]4(C)[C@]3(C)CC[C@@H]12 [PPD12]
ABCB1 [2]
  EC50: 1.52 µM
